The source made the active and inactive calls. The calls are words filed in the database; no cut-off is given here.
Legend:
[1] = Antiproliferative activity against human H460 cells assessed as reduction in cell number after 72 hrs by cell counter analysis; format: functional, cell-based; conditions: NCI-H460, 72 h
HT-29 [2] = assay: Antiproliferative activity against mitoxantrone resistant human HT-29 cells assessed as reduction in cell number after 72 hrs by cell counter analysis; format: functional, cell-based; conditions: HT-29, 72 h
HT-29 [3] = assay: Antiproliferative activity against human HT-29 cells assessed as reduction in cell number after 72 hrs by cell counter analysis; format: functional, cell-based; conditions: HT-29, 72 h
[4] = Antiproliferative activity human HCT116 cells assessed as reduction in cell number after 72 hrs by cell counter analysis; format: functional, cell-based; conditions: HCT-116, 72 h
[5] = Antiproliferative activity against human IGROV1 cells assessed as reduction in cell number after 72 hrs by cell counter analysis; format: functional, cell-based; conditions: IGROV-1, 72 h
[6] = Antiproliferative activity against human LoVo/DX cells assessed as reduction in cell number after 72 hrs by cell counter analysis; format: functional, cell-based
LoVo = assay: Antiproliferative activity against human LoVo cells assessed as reduction in cell number after 72 hrs by cell counter analysis; format: functional, cell-based
[7] = Cell cycle arrest in human IGROV1 cells assessed as accumulation at G1 phase at 0.3 to 1 uM after 72 hrs by propidium iodide staining based flow cytometry; format: functional; conditions: IGROV-1
IGROV-1 [8] = assay: Induction of apoptosis in human IGROV1 cells at 0.3 uM after 72 hrs by TUNEL assay (reference value: 3%); format: functional
animal or person = format: functional; conditions: Homo sapiens, HCT-116, po, read-out: TGI
Description: Antitumor activity against human HCT116 cells xenografted in athymic Swiss nude mouse assessed as tumor growth inhibition at 175 mg/kg, po for 5 days a week for 4 weeks relative to control

IGROV-1 [9] = assay: Induction of apoptosis in human IGROV1 cells at 1 uM after 72 hrs by TUNEL assay (reference value: 3%); format: functional
Histone deacetylase 2 = Histone deacetylase 2 (Homo sapiens, UniProt Q92769); assay: Inhibition of human recombinant HDAC2 using Fluor de Lys Green as substrate incubated for 30 mins by fluorescence assay
Chain of Histone deacetylase 2 (Q92769 whole entry): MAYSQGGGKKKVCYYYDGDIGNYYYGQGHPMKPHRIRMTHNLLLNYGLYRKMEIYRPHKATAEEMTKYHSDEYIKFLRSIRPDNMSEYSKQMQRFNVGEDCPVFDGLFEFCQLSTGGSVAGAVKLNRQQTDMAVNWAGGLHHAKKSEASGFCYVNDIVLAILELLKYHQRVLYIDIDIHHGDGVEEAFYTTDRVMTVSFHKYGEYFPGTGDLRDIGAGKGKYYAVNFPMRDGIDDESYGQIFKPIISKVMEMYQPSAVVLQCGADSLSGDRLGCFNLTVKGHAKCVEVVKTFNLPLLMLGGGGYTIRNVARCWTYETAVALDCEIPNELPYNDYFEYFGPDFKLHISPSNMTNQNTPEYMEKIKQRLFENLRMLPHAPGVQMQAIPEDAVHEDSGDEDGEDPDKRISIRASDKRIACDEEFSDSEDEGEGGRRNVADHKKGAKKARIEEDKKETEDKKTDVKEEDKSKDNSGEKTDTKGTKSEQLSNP

Histone deacetylase [10] = assay: Inhibition of HDAC in human HeLa nuclear extract using BOC-Ac-Lys-AMC as substrate incubated for 90 mins by fluorescence assay; format: protein assay
Histone deacetylase [11] = assay: Inhibition of HDAC in human HeLa cells using BOC-Ac-Lys-AMC as substrate incubated for 4 hrs by fluorescence assay; format: cell-based

Row | SMILES | IC50 [1] | IC50 (HT-29 [2]) | IC50 (HT-29 [3]) | IC50 [4] | IC50 [5] | IC50 [6] | IC50 (LoVo) | Activity [7] | Activity (IGROV-1 [8]) | inhibition in vivo at 175 mg/kg (animal or person) | Activity (IGROV-1 [9]) | IC50 (Histone deacetylase 2) | IC50 (Histone deacetylase [10]) | IC50 (Histone deacetylase [11])
1 | COc1ccc(-c2ccc(/C=C/C(=O)NO)cc2)cc1 | 3.7 µM | 1.73 µM | 1.58 µM | 0.26 µM | 0.75 µM | – | – | – | – | – | – | – | – | –
2 | Cc1[nH]c2ccccc2c1/C=C/c1ccccc1-c1ccc(/C=C/C(=O)NO)cc1 | 1.41 µM | 2.44 µM | 1.37 µM | 0.27 µM | 0.35 µM | 4.62 µM | 6.57 µM | Active | 34% | 68% | 79% | – | – | –
3 | CC(C)=C(c1ccccc1)c1ccc(/C=C/C(=O)NO)cc1 | 5.5 µM | – | 4.12 µM | 2 µM | 2.5 µM | – | 2.79 µM | – | – | – | – | 11.8 µM | 2.6 µM | 2.5 µM
4 | O=C(CCCCCCC(=O)Nc1ccccc1)NO [VORINOSTAT] | – | – | – | 0.31 µM | 2.2 µM | – | – | – | – | – | – | – | – | –

Reference: ChEMBL document CHEMBL3792283, “Biphenyl-4-yl-acrylohydroxamic acids: Identification of a novel indolyl-substituted HDAC inhibitor with antitumor activity” (Eur J Med Chem, 2016)
